Test results: PMC9024521, “4-Heteroaryl Substituted Amino-3,5-Dicyanopyridines as New Adenosine Receptor Ligands: Novel Insights on Structure-Activity Relationships and Perspectives” (Pharmaceuticals, 2022)

What was measured:
[1] = biological target: T1, hA3AR (Homo sapiens, UniProt P0DMS8); assay: Modulation of Forskolin-stimulated cAMP levels in hA3 CHO cells; assay type: cell-based; settings: for IC50: cAMP assay, hA3 CHO cells, read-out: hA3AR IC50, potency to modulate Forskolin-stimulated cAMP levels; for hA3AR Efficacy: normalized: 2-Cl-IB-MECA full agonist = 100%
T1 construct: host or cells: CHO cells
T1 sequence (P0DMS8 1-318): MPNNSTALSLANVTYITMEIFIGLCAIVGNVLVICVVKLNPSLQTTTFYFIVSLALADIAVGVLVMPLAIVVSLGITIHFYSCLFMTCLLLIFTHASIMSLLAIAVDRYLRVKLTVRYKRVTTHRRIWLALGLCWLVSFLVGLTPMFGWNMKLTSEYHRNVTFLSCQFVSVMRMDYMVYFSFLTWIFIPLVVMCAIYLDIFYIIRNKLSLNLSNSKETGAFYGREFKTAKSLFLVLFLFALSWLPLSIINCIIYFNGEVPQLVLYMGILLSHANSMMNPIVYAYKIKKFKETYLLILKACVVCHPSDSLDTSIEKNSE
Experimental: The amino-3,5-dicyanopyridines 1–21 were tested for their affinity at hA1, hA2A and hA3 ARs, stably transfected in Chinese Hamster Ovary (CHO) cells. Moreover, they were also studied as hA2B agonists by evaluating their stimulatory effect on cAMP production in CHO cells, stably expressing the hA2B AR. […] Due to their interesting pan profile, both compounds 1 and 5 were evaluated as AR agonists also at the hA2A and hA3 subtypes.
(§1) CHO cells transfected with hA1, hA2A, hA2B and hA3 ARs (Perkin Elmer, Boston, MA, USA) were grown adherently and maintained in Dulbecco’s modified Eagle’s medium with nutrient mixture F12, containing 10% fetal calf serum, penicillin (100 U/mL), streptomycin (100 μg/mL), L-glutamine (2 mM) and geneticine (G418; 0.2 mg/mL), at 37 °C, in 5% CO2/95% air, until their use in cAMP assays. For membrane preparation, the culture medium was removed, and the cells were washed with phosphate-buffered saline and scraped off T75 flasks in ice-cold hypotonic buffer (5 mM Tris HCl, 1 mM EDTA, pH 7.4). The cell suspension was homogenized with a Polytron, centrifuged for 30 min at 40,000× g, at 4 °C, and the resulting membrane pellet was used for competition binding experiments.
CHO cells transfected with hAR subtypes were washed with phosphate-buffered saline, detached with tripsine and centrifuged for 10 min at 200× g. Cells were seeded in a 96-well white half-area microplate (Perkin Elmer, Boston, USA) in a stimulation buffer composed of Hank Balanced Salt Solution, 5 mM HEPES, 0.5 mM Ro 20–1724, 0.1% BSA. The cAMP levels were then quantified by using the AlphaScreen cAMP Detection Kit (Perkin Elmer, Boston, MA, USA), following the manufacturer’s instructions. At the end of the experiments, the plates were read with a Perkin Elmer EnSight Multimode Plate Reader.

[2] = biological target: T1, hA3AR; assay: Competition binding, [125I]AB-MECA, hA3 CHO cell membranes; settings: displacement of [125I]AB-MECA, hA3 CHO cells; mean ± SEM of four assays
Experimental: as §1
All synthesized compounds were tested for their affinity to hA1, hA2A and hA3 ARs. Competition experiments to hA1AR were carried out by incubating 1 nM [^3H]-8-cyclopentyl-1,3-dipropylxanthine ([^3H]-DPCPX) with membrane suspension (50 μg of protein/100 μL) and different concentrations of the examined compounds at 25 °C for 90 min in 50 mM Tris HCl, pH 7.4. Non-specific binding was defined as binding in the presence of 1 μM DPCPX and was always <10% of the total binding. Inhibition experiments to hA2A ARs were performed by incubating the radioligand [^3H]-4-(-2-[7-amino-2-{2-furyl}{1,2,4}triazolo{2,3-a} {1,3,5}triazin-5-yl-amino]ethyl)phenol ([^3H]-ZM241385) (1 nM) with the membrane suspension (50 μg of protein/100 μL) and different concentrations of the examined compounds for 60 min, at 4 °C, in 50 mM Tris HCl (pH 7.4), 10 mM MgCl2. Non-specific binding was determined in the presence of ZM241385 (1 μM) and was about 20% of the total binding. Competition binding experiments to A3ARs were carried out by incubating the membrane suspension (50 μg of protein/100 μL) with 0.5 nM [^125I]-N6-(4-aminobenzyl)-N-methylcarboxamidoadenosine ([^125I]-ABMECA) in the presence of different concentrations of the examined compounds for an incubation time of 120 min, at 4 °C, in 50 mM Tris HCl (pH 7.4), 10 mM MgCl2, 1 mM EDTA. Non-specific binding was defined as binding in the presence of 1 μM ABMECA and was always <10% of the total binding. Bound and free radioactivity were separated by filtering the assay mixture through Whatman GF/B glass-fiber filters, using a Brandel cell harvester (Brandel Instruments, Unterföhring, Germany). The filter bound radioactivity was counted by Packard Tri Carb 2810 TR scintillation counter (Perkin Elmer).
The protein concentration was determined according to a Bio-Rad method, with bovine albumin as a standard reference. Inhibitory binding constant (Ki) values were calculated from those of IC50 according to the Cheng–Prusoff equation, Ki = IC50/(1 + [C*]/KD*), where [C*] is the concentration of the radioligand, and KD* its dissociation constant. Ki and IC50 values were calculated by non-linear regression analysis, using the equation for a sigmoid concentration-response curve (Graph-PAD Prism, San Diego, CA, USA).

Row | IC50 [1] [nM] | hA3AR Efficacy [1] [%] | Ki [2] [nM] | Structure (SMILES)
1 | 33 ± 2 | 34 ± 3 | 25 ± 2 | N#Cc1c(N)nc(SCc2ncc[nH]2)c(C#N)c1-c1cccs1 [Compound 5, 2-Amino-6-[(1H-imidazol-2-ylmethyl)sulfanyl]-4-(thiophen-2-yl)pyridine-3,5-dicarbonitrile]
2 | 68 ± 6 | 45 ± 4 | 52 ± 5 | N#Cc1c(N)nc(SCc2ncc[nH]2)c(C#N)c1-c1ccco1 [Compound 1, 2-Amino-4-(furan-2-yl)-6-[(1H-imidazol-2-ylmethyl)sulfanyl]pyridine-3,5-dicarbonitrile]
